*: point of attachment. Cbz = O=C(OCc1ccccc1)*; NHOH = ON*
How the values were obtained:
[1] = biological target: FBP; conditions: cited from earlier work; for affinity for FBP relative to folic acid: order: pemetrexed>CB3717>IAHQ>2-NH2-ZD1694
[2] = biological target: αvβ5 (Homo sapiens, UniProt P06756+P18084); conditions: cited from earlier work
[3] = biological target: α5β1 (Homo sapiens, UniProt P05556+P08648); conditions: cited from earlier work
[4] = biological target: T1, human MMP-1 (Homo sapiens, UniProt P03956); assay: In vitro MMP-inhibiting activity (fluorimetry), MMP-1; type: biochemical; conditions: for CONCENTRATION OF PEPTIDE (with significant inhibitory effect): tested at 10^−5, 10^−7 and 10^−9 M with respect to peptides
T1 sequence (P03956 100-469): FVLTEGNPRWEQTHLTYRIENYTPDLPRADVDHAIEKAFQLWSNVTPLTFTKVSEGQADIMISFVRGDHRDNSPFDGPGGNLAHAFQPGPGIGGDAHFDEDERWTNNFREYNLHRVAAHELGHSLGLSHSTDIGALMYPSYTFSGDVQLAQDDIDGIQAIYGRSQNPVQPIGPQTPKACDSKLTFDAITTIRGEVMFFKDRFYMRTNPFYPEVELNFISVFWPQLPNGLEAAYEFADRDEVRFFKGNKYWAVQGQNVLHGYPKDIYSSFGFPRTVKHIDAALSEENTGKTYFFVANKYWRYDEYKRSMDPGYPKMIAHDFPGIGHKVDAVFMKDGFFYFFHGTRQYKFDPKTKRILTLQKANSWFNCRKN
Protocol: The inventors assayed the in vitro activity of the P947 and P967 gadolinium-chelate contrast products functionalized with matrix metalloproteases inhibitors (MMPs), on human MMP-1 and MMP-3. As regards the affinity of the biovector component, on the receptor, the controls were two peptides:
More precisely, the in vitro MMP-inhibiting activity was evaluated in the following way: • 1. Incubation of the test product in the presence of the MMP enzyme, at 37° C., for a defined period of time, and then measurement of the fluorescence of the medium (t=0). • 2. Induction of the enzyme reaction by addition of the substrate to (which becomes fluorescent when it is cleaved by the enzyme), and then incubation at 37° C. for 40 min. A second measurement of fluorescence is then taken (t=40). • 3. The activity of the MMP enzyme is determined by subtraction of the signal measured by fluorimetry: (t=40)-(t=0). • 4. The results are expressed as percentage inhibition of the activity of the control enzyme. • 5. The standard inhibitory product is TIMP-1.
The products were tested in duplicate, at 10^−5, 10^−7 and 10^−9 M with respect to peptides. Those which contain no peptides were treated in a manner similar to the corresponding functionalized contrast products.

[5] = biological target: T1, human MMP-1; conditions: value of the peptide component, not of the Gd conjugate, read-out: IC50 OF THE PEPTIDE (LITERATURE); cited from earlier work
[6] = Molar relaxivity (r1, r2) measurement; type: physicochemical; conditions: 60 MHz; in water; 2 Gd per mol of product; uncertainty +/−5%
Excerpt: Since BIO-FOLATE.I has 2 Gd per mol of product, the molar relaxivity values are summarized in this table (uncertainty +/−5%).

[7] = biological target: T2, Folate Binding Protein (FBP) (Bos taurus, UniProt P02702); assay: Study of affinity with Folate Binding Protein by means of BIAcore 3000
T2 construct: purchased Sigma F-0504
T2 sequence (P02702 20-234): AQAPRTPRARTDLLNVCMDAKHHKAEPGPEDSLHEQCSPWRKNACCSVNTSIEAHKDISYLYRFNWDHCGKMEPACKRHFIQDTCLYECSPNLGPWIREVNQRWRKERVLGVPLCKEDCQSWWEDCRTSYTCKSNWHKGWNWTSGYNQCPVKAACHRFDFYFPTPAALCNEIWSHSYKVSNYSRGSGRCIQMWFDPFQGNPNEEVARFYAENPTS
Protocol: (§1) The molar BIO-FOLATE.I relaxivity in water is very good, in particular at 60 MHz: r1=53 mM^−1·s^−1. It is recalled that the relaxivity obtained with specific products of the prior art of the type such as dendrimer associated with folates is r1=9.32 mM^−1s^−1 per Gd (Investigative Radiology, January 2000, vol 35, p 56). • Study of MRI imaging between 30 minutes and 24 hours the contrast at the level of the tumour is very clear, in particular 1 to 2 hours after injection. In addition, Gd assays by ICP-MS; were carried out on the reference organs at the end of the assays using the imager. […] The tumour/muscle ratio is of the order of 4 to 10 times that observed with previously used contrast products. Experimental Conditions for the BIACORE 3000 Studies on P860 and BIO-FOLATE.I (Study of Affinity Between P860, BIO-FOLATE.I, and Folate Binding Protein by Means of BIAcore 3000).
PGM buffer: 100 mM KH2PO4, pH 7, 10% glycerol and 4 mM β-mercaptoethanol
The FBP was immobilized at 1 mg/ml in PGM buffer according to the protocols recommended by BIAcore for coupling amines. Next, the remaining active carboxylated groups are saturated with 1M ethanolamine, pH=8.
The folate binding was followed at four different concentrations (125, 250, 500 and 1000 μM). The association and the dissociation were studied with a flow rate at 30 μl/min. […]

[8] = system: KB cells; assay: In vitro study of binding/internalization in KB cells; type: cell-based, Human; conditions: 37° C., with or without excess free folic acid; ICP-MS assays
[9] = system: KB tumours; assay: Biodistribution study on nude mice bearing KB tumours
Excerpt: c. Biodistribution study on nude mice bearing KB tumours: this biodistribution study comprised competition between P860 and free-folic acid. A group of animals received normal food and a co-injection of folic acid with the product tested and another was given a folate-depleted diet through a single injection of the product tested.
Conditions for Biodistribution Study on Nude Mice Part 1: • Induction of subcutaneous tumours in nude female mice and […] of human KB cells. • Separation of the animals into 2 groups receiving a diet with or without folate (10 days). • The group with folate receives an additional injection of folic acid (25 μmol/kg IV) 5 minutes before the injections of contrast product (CP). • IV injection of CP then removal of organ samples (muscle, tumour, liver, kidneys) and plasma samples. Part 2: Assays by ICP-AES • Gd assay (P860, BIO-FOLATE.I, Dotarem): liver, kidney. Part 3: Bioanalysis: Assay by ICP-MS • Gd assay (P860, BIO-FOLATE.I, Dotarem): tumour, muscle, plasma
Supplementing with Folate • 5.5 mM folic acid diluted in PBS and then injected at a dose of 25 μmol/kg (4.54 ml/kg).
Folic acid and CP: IV administration (caudal vein).
The folic acid was injected 5 minutes before the injection of CP.
Results: Tumour Distribution of the PC—Gd

[10] = system: tumours; assay: Study of MRI imaging between 30 minutes and 24 hours with Gd assays by ICP-MS; type: in vivo
Protocol: as §1

α5β1, sequence (P08648 42-894 limits assumed): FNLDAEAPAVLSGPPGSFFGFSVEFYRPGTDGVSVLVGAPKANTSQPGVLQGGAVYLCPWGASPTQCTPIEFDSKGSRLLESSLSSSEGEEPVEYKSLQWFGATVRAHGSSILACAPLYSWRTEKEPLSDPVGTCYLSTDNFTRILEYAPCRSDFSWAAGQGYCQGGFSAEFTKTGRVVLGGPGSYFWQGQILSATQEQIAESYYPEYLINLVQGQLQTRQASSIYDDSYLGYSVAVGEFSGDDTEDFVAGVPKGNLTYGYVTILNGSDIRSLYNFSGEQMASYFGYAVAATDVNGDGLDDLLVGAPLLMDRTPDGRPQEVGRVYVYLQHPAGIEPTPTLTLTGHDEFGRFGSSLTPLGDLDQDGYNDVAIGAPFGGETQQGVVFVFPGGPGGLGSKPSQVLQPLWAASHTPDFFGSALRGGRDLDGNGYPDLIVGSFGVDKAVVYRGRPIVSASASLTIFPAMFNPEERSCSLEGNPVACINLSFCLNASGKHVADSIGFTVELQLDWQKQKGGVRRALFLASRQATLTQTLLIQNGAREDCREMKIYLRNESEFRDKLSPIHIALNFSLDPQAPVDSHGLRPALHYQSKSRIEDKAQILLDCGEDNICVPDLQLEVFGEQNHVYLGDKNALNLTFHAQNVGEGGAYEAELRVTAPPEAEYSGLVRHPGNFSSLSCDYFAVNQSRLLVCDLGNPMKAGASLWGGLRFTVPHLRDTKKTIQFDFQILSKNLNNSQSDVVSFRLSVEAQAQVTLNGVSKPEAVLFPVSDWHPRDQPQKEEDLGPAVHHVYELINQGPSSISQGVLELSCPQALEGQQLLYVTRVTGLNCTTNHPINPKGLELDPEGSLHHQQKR
α5β1, sequence (P08648 895-1049 partner limits assumed): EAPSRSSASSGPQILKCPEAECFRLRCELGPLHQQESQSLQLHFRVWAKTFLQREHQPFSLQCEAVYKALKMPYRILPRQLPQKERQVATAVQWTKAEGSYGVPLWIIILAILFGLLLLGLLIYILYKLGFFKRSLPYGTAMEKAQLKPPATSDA
α5β1, sequence (P05556 21-798): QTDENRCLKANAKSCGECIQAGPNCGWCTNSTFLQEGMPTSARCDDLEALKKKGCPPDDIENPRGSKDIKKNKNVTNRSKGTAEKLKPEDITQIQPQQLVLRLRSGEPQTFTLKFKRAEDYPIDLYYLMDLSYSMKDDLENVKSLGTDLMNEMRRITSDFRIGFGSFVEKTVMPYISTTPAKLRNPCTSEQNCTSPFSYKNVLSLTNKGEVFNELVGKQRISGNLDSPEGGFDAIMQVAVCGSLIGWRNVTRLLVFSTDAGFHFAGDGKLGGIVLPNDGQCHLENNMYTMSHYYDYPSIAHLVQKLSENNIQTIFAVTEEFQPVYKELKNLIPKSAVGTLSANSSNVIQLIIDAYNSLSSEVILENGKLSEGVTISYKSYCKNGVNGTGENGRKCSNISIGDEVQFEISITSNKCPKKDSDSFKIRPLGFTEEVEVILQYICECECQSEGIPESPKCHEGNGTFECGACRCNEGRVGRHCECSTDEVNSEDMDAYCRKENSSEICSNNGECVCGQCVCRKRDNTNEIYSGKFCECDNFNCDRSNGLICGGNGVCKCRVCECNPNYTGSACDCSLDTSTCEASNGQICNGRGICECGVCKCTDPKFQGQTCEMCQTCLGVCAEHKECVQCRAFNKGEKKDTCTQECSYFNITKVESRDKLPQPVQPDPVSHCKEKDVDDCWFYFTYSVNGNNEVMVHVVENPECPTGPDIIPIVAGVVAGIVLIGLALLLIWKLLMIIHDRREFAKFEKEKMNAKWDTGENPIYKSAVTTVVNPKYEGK
αvβ5, sequence (P06756 31-889 limits assumed): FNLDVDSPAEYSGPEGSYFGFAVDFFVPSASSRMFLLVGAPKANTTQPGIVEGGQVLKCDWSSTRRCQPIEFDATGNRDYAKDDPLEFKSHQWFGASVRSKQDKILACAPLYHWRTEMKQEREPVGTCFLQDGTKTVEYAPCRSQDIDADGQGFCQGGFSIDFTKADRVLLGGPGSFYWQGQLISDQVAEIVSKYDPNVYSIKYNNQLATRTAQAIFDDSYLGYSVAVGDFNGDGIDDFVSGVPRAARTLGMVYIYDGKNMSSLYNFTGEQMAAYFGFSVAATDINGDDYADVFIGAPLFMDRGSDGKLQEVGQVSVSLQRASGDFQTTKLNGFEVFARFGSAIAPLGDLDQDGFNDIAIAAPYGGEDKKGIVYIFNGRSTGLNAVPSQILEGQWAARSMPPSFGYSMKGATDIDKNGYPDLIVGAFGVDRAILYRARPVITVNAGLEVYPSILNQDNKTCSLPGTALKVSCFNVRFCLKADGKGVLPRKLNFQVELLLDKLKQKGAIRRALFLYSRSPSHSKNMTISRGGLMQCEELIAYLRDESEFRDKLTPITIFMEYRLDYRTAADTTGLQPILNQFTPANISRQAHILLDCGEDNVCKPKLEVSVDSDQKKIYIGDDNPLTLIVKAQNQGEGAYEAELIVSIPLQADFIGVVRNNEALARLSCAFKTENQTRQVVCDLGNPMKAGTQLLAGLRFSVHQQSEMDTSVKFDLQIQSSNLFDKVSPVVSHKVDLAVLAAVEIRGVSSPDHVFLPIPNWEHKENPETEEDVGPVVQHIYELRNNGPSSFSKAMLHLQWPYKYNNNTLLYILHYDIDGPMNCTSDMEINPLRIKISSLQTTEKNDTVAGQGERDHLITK
αvβ5, sequence (P06756 891-1048 partner limits assumed): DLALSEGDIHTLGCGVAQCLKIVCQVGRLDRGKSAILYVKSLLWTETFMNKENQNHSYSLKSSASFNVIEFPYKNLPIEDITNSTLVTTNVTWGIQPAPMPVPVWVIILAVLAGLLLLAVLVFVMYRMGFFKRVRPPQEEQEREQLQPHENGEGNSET
αvβ5, sequence (P18084 24-799): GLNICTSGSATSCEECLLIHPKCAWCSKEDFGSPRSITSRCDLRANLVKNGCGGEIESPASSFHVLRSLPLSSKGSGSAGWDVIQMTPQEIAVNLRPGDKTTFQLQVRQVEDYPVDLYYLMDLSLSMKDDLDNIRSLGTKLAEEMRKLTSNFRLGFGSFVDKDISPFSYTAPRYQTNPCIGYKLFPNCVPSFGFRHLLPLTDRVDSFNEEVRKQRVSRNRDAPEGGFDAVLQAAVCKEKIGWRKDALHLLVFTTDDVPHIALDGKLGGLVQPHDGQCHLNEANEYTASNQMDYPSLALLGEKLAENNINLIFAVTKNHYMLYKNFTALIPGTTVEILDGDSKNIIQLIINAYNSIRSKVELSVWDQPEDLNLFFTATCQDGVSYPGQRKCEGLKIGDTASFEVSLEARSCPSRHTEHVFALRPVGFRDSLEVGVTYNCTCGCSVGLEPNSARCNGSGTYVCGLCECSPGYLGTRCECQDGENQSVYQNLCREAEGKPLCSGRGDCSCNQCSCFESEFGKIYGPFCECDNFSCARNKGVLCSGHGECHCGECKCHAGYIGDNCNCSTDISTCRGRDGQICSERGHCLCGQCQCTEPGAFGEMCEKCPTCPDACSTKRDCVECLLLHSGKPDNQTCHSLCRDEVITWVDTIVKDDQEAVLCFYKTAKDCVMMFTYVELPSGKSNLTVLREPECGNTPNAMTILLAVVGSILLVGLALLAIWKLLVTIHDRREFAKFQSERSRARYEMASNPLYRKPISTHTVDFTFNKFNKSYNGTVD

NC1=NC2=C(S[C@H](CCc3ccc(C(=O)N[C@@H](CCC(=O)O)C(=O)O)s3)CN2)C(O)N1 (some centres unmarked)
Kd [1]: 0.0032 nM

Nc1nc(O)c2c(CCc3ccc(C(=O)N[C@@H](CCC(=O)O)C(=O)O)cc3)c[nH]c2n1 [pemetrexed]
affinity for FBP relative to folic acid [1]: affinity greater than folic acid

cyclo(ARGD-Mamb) [XJ735]
blocking of αvβ5 [2]: does not block
blocking of α5β1 [3]: does not block

CC(C)C[C@@H](NC(=O)[C@@H]1CCCN1C(=O)CNC(=O)c1ccc(NC(=S)Nc2ccc(CCC(C(=O)O)N3CCN(CC(=O)O)CCN(CC(=O)O)CCN(CC(=O)O)CC3)cc2)cc1)C(=O)N[C@@H](C)C(=O)NO (some centres unmarked) [Example P947]
SIGNIFICANT INHIBITORY EFFECT ([4]; concentration of peptide 10^−5M): 86%
CONCENTRATION OF PEPTIDE (with significant inhibitory effect) [4]: 10^−5M
IC50 [5]: 1000 nM

Nc1nc2ncc(CNc3ccc(C(=O)N[C@@H](CCC(=O)NCCCOCCOCCOCCCNc4c(NCCOCCOCCNc5nc(Nc6ccc(CCC(C(=O)O)N7CCN(C(CCC(=O)NCC(=O)Nc8c(Br)c(C(=O)N(CC(O)C(O)C(O)C(O)CO)CC(O)C(O)C(O)C(O)CO)c(Br)c(C(=O)N(CC(O)C(O)C(O)C(O)CO)CC(O)C(O)C(O)C(O)CO)c8Br)C(=O)O)CCN(C(CCC(=O)NCC(=O)Nc8c(Br)c(C(=O)N(CC(O)C(O)C(O)C(O)CO)CC(O)C(O)C(O)C(O)CO)c(Br)c(C(=O)N(CC(O)C(O)C(O)C(O)CO)CC(O)C(O)C(O)C(O)CO)c8Br)C(=O)O)CCN(C(CCC(=O)NCC(=O)Nc8c(Br)c(C(=O)N(CC(O)C(O)C(O)C(O)CO)CC(O)C(O)C(O)C(O)CO)c(Br)c(C(=O)N(CC(O)C(O)C(O)C(O)CO)CC(O)C(O)C(O)C(O)CO)c8Br)C(=O)O)CC7)cc6)nc(Nc6ccc(CCC(C(=O)O)N7CCN(C(CCC(=O)NCC(=O)Nc8c(Br)c(C(=O)N(CC(O)C(O)C(O)C(O)CO)CC(O)C(O)C(O)C(O)CO)c(Br)c(C(=O)N(CC(O)C(O)C(O)C(O)CO)CC(O)C(O)C(O)C(O)CO)c8Br)C(=O)O)CCN(C(CCC(=O)NCC(=O)Nc8c(Br)c(C(=O)N(CC(O)C(O)C(O)C(O)CO)CC(O)C(O)C(O)C(O)CO)c(Br)c(C(=O)N(CC(O)C(O)C(O)C(O)CO)CC(O)C(O)C(O)C(O)CO)c8Br)C(=O)O)CCN(C(CCC(=O)NCC(=O)Nc8c(Br)c(C(=O)N(CC(O)C(O)C(O)C(O)CO)CC(O)C(O)C(O)C(O)CO)c(Br)c(C(=O)N(CC(O)C(O)C(O)C(O)CO)CC(O)C(O)C(O)C(O)CO)c8Br)C(=O)O)CC7)cc6)n5)c(=O)c4=O)C(=O)O)cc3)nc2c(=O)[nH]1 (some centres unmarked) [BIO-FOLATE.I]
molar r1 [6]: 53 mM⁻¹ s⁻¹
binding to FBP (folate binding protein) in vitro [7]: binds specifically to FBP
amount of product specifically bound and internalized in KB cells [8]: Correct capture
accumulation in the tumours ([9]; 15 μmol/kg): excellent accumulation
decrease of product in the tumour by folic acid ([9]; competition with free folate, times 4 and 24 h): 2 times less
injected dose found in the tumour ([9]; female, nude, mouse, in vivo, iv): 5-8%
injected theoretical dose found in the tumours ([9]; folate-free diet, at 4 h): 14%
injected theoretical dose found in the tumours ([9]; folate-free diet, at 72 h): 7%
effect of prior injection of free folic acid on tumour Gd ([9]; free folic at 25 μmol/kg before the product): decrease the Gd concentrations assayed in the tumours
activity in vivo ([9]; in vivo studies (biodistribution, MRI)): P860 is inactive in vivo unlike BIO-FOLATE.I and BIO-FOLATE.II
contrast at the level of the tumour (MRI) ([10]; between 30 minutes and 24 hours, in particular 1 to 2 hours after injection): very clear
heightening of the tumours, duration ([10]; versus products of the prior art): longer lasting than with products of the prior art

Cbz-Pro-Leu-Gly-{NHOH} [PEPTIDE A]
CONCENTRATION OF PEPTIDE (with significant inhibitory effect) [4]: >10^−5M
IC50 [5]: 40000 nM

CNC[C@H](O)[C@@H](O)[C@H](O)[C@H](O)CO.O=C([O-])CN1CCN(CC(=O)[O-])CCN(CC(=O)O)CCN(CC(=O)[O-])CC1.[Gd+3] [Dotarem]
injected theoretical dose found in the tumours ([9]; mouse, in vivo): 1-2%
intratumour amounts corrected for g of tissue ([9]; mouse, in vivo): negligable beyond 4 h

Nc1nc2ccc(NCc3ccc(C(=O)N[C@@H](CCC(=O)O)C(=O)O)cc3)cc2c(=O)[nH]1 [IAHQ]
affinity for FBP relative to folic acid [1]: affinity greater than folic acid

C#CCN(Cc1ccc2nc(N)[nH]c(=O)c2c1)c1ccc(C(=O)N[C@@H](CCC(=O)O)C(=O)O)cc1 [CB3717]
affinity for FBP relative to folic acid [1]: affinity greater than folic acid

CN(Cc1ccc2nc(N)[nH]c(=O)c2c1)c1ccc(C(=O)NC(CCC(=O)O)C(=O)O)s1 (centres unmarked) [Example 2-NH2-ZD1694]
affinity for FBP relative to folic acid [1]: affinity greater than folic acid
